US20230057930A1, “COMPOSITIONS FOR ALLEVIATING THE SYMPTOMS OF LOW ANTERIOR RESECTION SYNDROME BY TOPICAL ADMINISTRATION TO THE NEORECTUM” (RepoCeuticals A/S, priority 2020, published 2023)

Legend:
human subjects = settings: cited from earlier work
[1] = Storage stability of melatonin in aqueous solution / formulation; type: physicochemical; settings: shelf life
Method: Dimethyl sulfoxide (DMSO): DMSO ((CH3)2SO), molecular weight 78.1 g/mol, is a colorless polar aprotic solvent for both polar and nonpolar compounds and is completely miscible with water and a wide range of organic solvents. It is well known as a solvent or solubilizer for melatonin, as are also ethanol, glycerin and propylene glycol. […] On the other hand, the solubility of melatonin in water is limited to approximately 2 g/L at 20° C. […] DMSO penetrates the skin and other epithelia without damaging them and can carry other compounds dissolved in it into the underlying cells and tissues. DMSO has been used in human subjects as a topical analgesic, a vehicle for the topical application of pharmaceuticals e.g. as a component of a transdermal drug delivery systems, as an anti-inflammatory agent, and as an antioxidant. It is also used as a cryopreservative for sperm and oocytes in fertility treatments as well as for stem cells and modified lymphocytes for cellular therapies for cancer. […] While DMSO has been examined for the treatment of numerous conditions and ailments, its only use approved by the U.S. Food and Drug Administration (FDA) has been for the symptomatic treatment of interstitial cystitis, in which 50% (w/w) aqueous DMSO is instilled into the urinary bladder. […]

rats = settings: rat, cited from earlier work
patients with LARS = settings: cited from earlier work
[2] = cited from earlier work

C[S+](C)[O-] [DMSO, Dimethyl sulfoxide]
adverse effects in patients (human subjects; intravenously, doses up to 1 g/kg/day): without evidence of adverse effects
effect on decomposition of melatonin in aqueous solutions [1]: prevents the decomposition of melatonin
median 50% lethal oral dose (LD50 oral) relative to ethanol (rats; oral): twice as high as that of ethanol

Cn1cc(C(=O)[C@@H]2CCc3nc[nH]c3C2)c2ccccc21 [ramosetron]
effect on symptoms of LARS (patients with LARS): alleviated the symptoms of urgency and reduced the number of bowel movements per day

COc1ccc2[nH]cc(CCNC(C)=O)c2c1 [Melatonin, N-acetyl-5-methoxytryptamine]
adverse effects in human subjects (human subjects; gram amounts oral per day for prolonged periods): without apparent adverse effects
50% lethal oral dose (LD50 oral) (rats; in vivo, po): > 3200 mg/kg
solubility in water ([2]; 20° C.): approximately 2 g/L
solubility in DMSO ([2]; room temperature (20 or 25° C.)): ≥ 232 mg/mL

glycofurol
effect on decomposition of melatonin in aqueous solutions [1]: reduces the decomposition of melatonin
